The target of this test is Proto-oncogene tyrosine-protein kinase Src (Homo sapiens) (UniProt P12931). Put plainly: PubChem AID 1671416. The settings on record: Z'-LYTE FRET kinase activity, recombinant SRC.

Structures are written as SMILES.

The term IC50 denotes the concentration that gives 50% inhibition.

Chain of Proto-oncogene tyrosine-protein kinase Src (Homo sapiens) (P12931 whole entry, looked up): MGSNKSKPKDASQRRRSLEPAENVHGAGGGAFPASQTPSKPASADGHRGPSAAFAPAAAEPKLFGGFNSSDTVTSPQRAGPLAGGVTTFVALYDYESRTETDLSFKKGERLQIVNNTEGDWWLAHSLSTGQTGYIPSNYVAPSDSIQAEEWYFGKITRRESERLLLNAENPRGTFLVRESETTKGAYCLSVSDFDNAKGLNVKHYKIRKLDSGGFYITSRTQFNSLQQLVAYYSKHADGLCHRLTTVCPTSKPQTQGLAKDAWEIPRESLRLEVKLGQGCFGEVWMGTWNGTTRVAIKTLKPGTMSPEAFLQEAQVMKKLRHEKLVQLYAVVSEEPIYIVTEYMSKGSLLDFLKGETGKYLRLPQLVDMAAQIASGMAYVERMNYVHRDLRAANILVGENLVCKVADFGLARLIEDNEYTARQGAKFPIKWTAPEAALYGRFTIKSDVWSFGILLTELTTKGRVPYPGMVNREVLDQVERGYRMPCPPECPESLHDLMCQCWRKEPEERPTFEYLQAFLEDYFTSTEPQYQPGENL

With `COc1cc2ncnc(Nc3cccc(Cl)c3)c2cc1OC`, the IC50 is 2450 nM.

Source of the values: PubChem BioAssay AID1671416.
